Results published in US5344952A, “Fluoroketone enzyme inhibitors” (priority 1993, dated 1994).

Columns and labels:
[1] = system: RLE; assay: Sandwich assay for Adenovirus, free inhibitor added to control wells (RLE, o-nitrophenyl butyrate); format: biochemical, rabbit; conditions: control wells having no antigen; 5×10^-9 M RLE, 50 mM TRIS pH 8.5, 1 mM o-nitrophenyl butyrate; color without inhibitor in ca 15 minutes
Description: A polyvinyl chloride microtiter plate was coated with anit-adenovirus antibody by incubating the plate for 1 hour at 37° C. in a 1:900 dilution of 4.5 mg/mL stock solution of the antibody in a 10 mM carbonate 20 mM ethylenediaminetetraacetic acid (EDTA) buffer. The plate was washed 3 times with a wash buffer solution consisting of 0.5% casein in 10 mM TRIS and 154 mM NaCl at pH 7.6. Adenovirus infected HeLa cells diluted to ca 1×10^5 plaque forming units (PFU)/ml in pH 7.4 phosphate buffered-saline containing 0.05% polyoxyethylenesorbitan monolaurate, 0.1 mg/ML gentamicin, 0.5% phenol red, 0.1% bovine serum albumin, 10 mM EDTA and 100 mM ethylene bis(oxyethylenenitrilo) tetraacetic acid were serially diluted in 2-fold steps across the plate. The plate was incubated-as above to bind the cells to the antibody, washed with wash buffer, incubated with a 0.005 mg/mL tracer solution of anti-adenovirus conjugated to alkaline phosphatase in wash buffer containing 0.5% gelatin and 10% inactivated fetal calf serum. Excess tracer solution was decanted and the plate was washed 3 times with TRIS buffer (without casein). A mixture of a 1×10^-4 M solution of the blocked inhibitor from Example I and 5×10^-9 M RLE in 50 mM TRIS buffer, pH 8.5, was added and the plate was incubated at room temperature for 10 minutes. o-Nitrophenyl butyrate (1 mM) was then added to each well of the plate. […]

[2] = molecular target: T1, Rabbit Liver Esterase (E.C. 3.1.1.1) (Oryctolagus cuniculus, UniProt P12337); assay: Inhibition constant, rabbit liver esterase (o-nitrophenylbutyrate hydrolysis); format: biochemical; conditions: RLE; 50 mM Tris pH=8.0; 20 min incubation at ambient temperature; substrate o-nitro-phenylbutrate
T1 construct: from tissue; host or cells: liver
T1 sequence (P12337 19-565): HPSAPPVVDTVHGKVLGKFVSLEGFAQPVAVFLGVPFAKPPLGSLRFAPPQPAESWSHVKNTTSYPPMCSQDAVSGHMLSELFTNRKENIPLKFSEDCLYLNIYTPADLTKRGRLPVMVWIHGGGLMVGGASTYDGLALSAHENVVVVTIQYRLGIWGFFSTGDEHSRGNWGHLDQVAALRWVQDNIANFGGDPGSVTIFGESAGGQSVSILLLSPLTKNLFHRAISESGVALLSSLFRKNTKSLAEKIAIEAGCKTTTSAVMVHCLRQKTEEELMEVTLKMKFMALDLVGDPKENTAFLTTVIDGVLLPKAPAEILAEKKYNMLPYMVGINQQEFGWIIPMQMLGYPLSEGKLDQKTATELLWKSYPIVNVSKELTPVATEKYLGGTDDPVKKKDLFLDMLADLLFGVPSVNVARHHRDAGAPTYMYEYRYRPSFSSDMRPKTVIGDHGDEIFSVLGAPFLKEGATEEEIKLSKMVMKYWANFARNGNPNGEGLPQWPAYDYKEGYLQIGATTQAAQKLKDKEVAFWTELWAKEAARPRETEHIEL
Description: Inhibition constants were measured in 50 mM Tris pH=8.0. Enzyme and inhibitor were incubated at ambient temperature for 20 minutes. Substrate for the enzyme was then added and the rate of hydrolysis was followed spectrophotometrically. The substrate for PLE and RLE was o-nitro-phenylbutrate and for AChE was acetyl thiocholine and Ellman's reagent.

| Structure (SMILES) | color formation in control wells on addition of free inhibitor [1] | Ki [2] [nM] |
| --- | --- | --- |
| O=C(CCc1ccc(O)cc1)C(F)(F)F [1,1,1-Trifluoro-4-(4-hydroxyphenyl)-2-butanone] | inhibited color formation for longer periods |  |
| O=C(/C=C/c1cccc(O)c1)C(F)(F)F [1,1,1-trifluoro-4-(3-hydroxyphenyl)-3-trans-buten-2-one] |  | 160 |
